The source made the active and inactive calls. The rule behind the calls is not given here.

The test has as its system MDA-MB-231. As to the kind of experiment: Induction of autophagy in human MDA-MB-231 cells assessed as increase in ATG7 expression at 1 to 5 uM incubated for 24 hrs by Western blot analysis. The class given is functional, cell-based. Particulars: dose 1-5 µM.

Regarding `C=C1C(=O)C2=C[C@H]1CCC(=O)[C@]1(C)[C@H](O)CCC(C)(C)[C@H]1C[C@H]2O`, the outcome was Active.

Values taken from ChEMBL document CHEMBL5036330, “Discovery of 8,9-seco-ent-Kaurane Diterpenoids as Potential Leads for the Treatment of Triple-Negative Breast Cancer” (J Med Chem, 2021).
